Four compounds from patent EP1647279A2, “Inhibition of apoptosis using interleukin-1beta-converting enzyme (ICE)/CED-3 family inhibitors” (priority 1996, dated 1998) can be followed below.

Residues, ends and D or L forms follow the SMILES beside them. *: point of attachment. Cbz = O=C(OCc1ccccc1)*; CH2F = FC*

A word on the IC50: it is the concentration that gives 50% inhibition.

Assay type in all cases: cell-based
Series [1] has as its system granulocytes. Nature of the series: Granulocyte survival in culture: analysis of hypodiploid nuclei by flow cytometry (propidium iodide). To be noted: Figure 6; for IC50: isolated granulocytes cultured at 37°C, nuclear hypodiploidy, propidium iodide stain via flow cytometry, read-out: IC50 (effects on granulocyte survival). On the procedure:
Whole blood anticoagulated with Acid Citrate Dextrose (ACD) with a ratio of 1:5 ACD to blood was collected (~100 ml).
Using polypropylene plastic ware, neutrophils are isolated as follows: 30 ml of the whole blood is added to 50 ml polypropylene centrifuge tubes containing 15 ml of 6% Dextran (in Saline). The blood is allowed to sediment for approximately 1 hour at room temperature.
The turbid straw colored layer harvested from the top of the cylinders into 50 ml conical polypropylene tubes. The blood cells were pelleted by centrifugation at 240 xg (Sorvall centrifuge at 1200 rpm) for 12 min. at 4°C with the brake on low.
The supernatant was aspirated and the pooled pellet resuspended in 40-50 ml cold PBS (w/o Ca, Mg), and centrifuged at 240 xg (Sorvall centrifuge at 1200 rpm) for 6 min. at 4°C with the brake on high.
The supernatant was aspirated and the pellet resuspended in 12 ml of cold cell culture grade water. The suspension was titriated gently with a pipet for 30 seconds then add 4 ml of cold 0.6 M KCl. (Brought up to 50 ml with cold PBS (w/o Ca, Mg)) and then centrifuged at 300 xg (Sorvall centrifuge at 1400 rpm) for 6 min. at 4°C with the brake on high.
The above was repeated one time.
The supernatant was aspirated and the cells resuspended in 2.5 ml cold PBS (w/o Ca, Mg). The cell suspension was layered over 3 ml Ficoll-Hypaque in a 15 ml polypropylene conical tube and centrifuged at 400 xg (Sorvall centrifuge at 1900 rpm) for 30 min. at 4°C with the brake on low.
The suspension aspirated was down to the neutrophil pellet. […]
The supernatant was aspirated and the neutrophil pellet resuspended in 4.0 ml cold PBS (w/o Ca, Mg) on ice. 10 µl of the neutrophil cell suspension was diluted with 990 µl of Trypan blue (1:100) and cells counted using a hemacytometer. The cell number and viability were determined. […]
• (50 µg/ml propidium iodide (Sigma catalog#P4170); 0.1% Triton X-100; and 0.1% sodium citrate). • Neutrophils were pelleted at 4°C and the supernate aspirated. • Neutrophils were resuspended in hypotonic fluorochrome solution at a density of 5x10^6 cells/ml. Propidium iodide fluorescence of individual nuclei was evaluated in FL2 and measured on a logarithmic scale while gating on physical parameters in forward and side scatter to exlude cell debris.
At least 10,000 events per sample were collected and the results were evaluated relative to a non-apoptotic neutrophil population. […]
The present invention provides methods to enhance the ex vivo survival of neutrophils/granulocytes. […] The presence of hypodiploid DNA is a measure of apoptosis, and is assessed using a propidium iodide stain via flow cytometry. […]
A general note: Flow cytometry measures light scatter and fluorescence of single cells or particles in a stream.

Series [2] concerns granulocytes. Kind of series: Respiratory burst in isolated neutrophils measured by chemiluminescence (opsonized zymosan, lucigenin). To be noted: Figure 7. The procedure:
Whole blood anticoagulated with Acid Citrate Dextrose (ACD) with a ratio of 1:5 ACD to blood was collected (150 ml). Neutrophils were isolated as described above.
Opsonized zymosan was prepared by suspending 125 mg zymosan particles in 25 ml pooled human serum (5 mg/ml) and incubating them for 20 minutes at 37°C. Centrifuge the suspension and resuspend the particles in 7 ml of PBS (18 mg/ml) and stored on ice until use (vortex prior to pipetting).
50 ml of a 250 µM solution of Lucigenin (MW 510.5) was prepared by dissolving 6.4 mg of the solid in 50 ml of PBS-G (+ Ca, Mg). 10 µl of PBS-G (+ Ca, Mg) to the wells in a white 96 well plate.
50 µl of the 250 µM Lucigenin solution was added to the wells in a white 96 well plate.
Cell preparations were obatined from cell culture (concentration at time zero= 5.0 x 10^6 cells/ml) with PBS-G (+ Ca, Mg).
20 µl of the neutrophil suspension was suspended to the appropriate wells and the plate was incubated the plate at 37° C for three minutes. 10 µl of the opsonized zymosan was added to the wells.
The plate was read on the luminometer (Labsystems Luminoskan, Needham Heights, MA) for 14 min. at 37° C in the kinetic mode and record results using the software DeltaSoft.
The ability to undergo the respiratory burst is another measure of granulocyte viability. The respiratory burst is a physiological response of granulocytes to foreign stimuli such as bacteria. In this example, the method for inducing the respiratory burst utilized opsonized bacterial zymosan. The respiratory burst was measured via chemiluminescence.

Series [3] deals with granulocytes in whole blood. Kind of series: Whole blood assay: survival of granulocytes by hypodiploid analysis via flow cytometry. On the procedure:
The following reagents were used: • anti-CD32-FITC monoclonal antibody obtained from Pharmingen. • Lysing Solution (10X Stock: 89.9 g NH4Cl; • 10.0 g KHCO; • 0.37 g tetrasodium EDTA; • dissolve in 1 liter dH2O. Adjust to pH 7.3. Store at 4°C in a tightly closed bottle. • Dilute 1:10 with dH2O prior to use.) • (DPBS without calcium or magnesium obtained from Irivine Scientific. • 2% fetal bovine serum in DPBS stored at 4°C. • 50 µg/ml propidium iodide in DPBS sterile filtered and stored at 4°C.)
The following protocol was followed: • 200 µl blood sample/2.8 ml 1X lysis solution in a 15 ml polypropylene conical tube. • Cap and invert to mix. Leave at room temperature for 3-5 minutes. • Centrifuge in a table-top Sorvall at 1200 rpm for 5 minutes at 4°C. • Aspirate supernate. Resuspend pellet in 200 µl/sample 2% FBS/DPBS. Add 20 µl/sample anti-CD32-FITC. Incubate 30 minutes on ice in the dark. • Add 5 ml/sample DPBS. Centrifuge at 1000 rpm for 5 minutes at 4°C. • Aspirate supemate. Resuspend pellet in 1 ml/sample 2% FBS/DPBS. • Add 3 ml/sample ice-cold 95% EtOH dropwise while vortexing gently. • Incubate samples on ice in the dark for 30 minutes. • Centrifuge at 1000 rpm for 5 minutes at 4°C. • Resuspend each sample in 50 µl 5 mg/ml RN'ase. Transfer sample to 900 µl/sample • 50 µg/ml Propidium Iodide in 12x75 mm Falcon polystyrene tubes. • Incubate on ice for 30 minutes. • Analyze samples by flow cytometry (argon laser) for forward and side scatter and fluorescence.
Survival of granulocytes in whole blood was measured by hypodiploid analysis in a similar fashion to isolated granulocytes via flow cytometry. ICE/ced-3 inhibitors of the present invention maintained survival of granulocytes in whole blood for 96 hours at room temperature as indicated in the table below: Percentage of diploid granulocytes in whole blood

The mark [4] stands for this setting: after granulocyte culture for 72 hours.
Where [5] appears, read: granulocyte culture for 48 hours.

Consider `Cc1c(C(=O)N[C@H](C(=O)NC(CC(=O)O)C(=O)CF)C(C)C)n(C)c2ccccc12` (stereo partly shown) [Example 43, N-[(1,3-Dimethylindole-2-Carbonyl)Valinyl]-3-Amino-4-Oxo-5-Fluoropentanoic Acid], for which, in series [1], the half-inhibitory concentration (IC50) was less than 5 µM. Moreover, the respiratory burst result is given as “partially maintained” in series [2] (setting [4]) and “substantially maintained” in series [2] (setting [5]). The “Percentage of diploid granulocytes in whole blood” value came out at 91% in series [3] (96 hours at room temperature) and 96% in series [3] (time zero, 0 min).

As for `COC(=O)C[C@H](NC(=O)[C@H](C)NC(=O)[C@@H](NC(=O)OCc1ccccc1)C(C)C)C(=O)CF` [zVADfmk, reference compound] (Cbz-Val-Ala-Asp(OMe)-CH2F), in series [1] (isolated granulocytes in culture, at 48 hours), the “effect on improving granulocyte survival” value is on record as “weak effect”. Further, the respiratory burst result in series [2] (no time stated) was “did not maintain the respiratory burst”.

Consider `O=C(O)CC(NC(=O)[C@@H]1Cc2cccc3c2N1C(=O)[C@@H](NC(=O)OCc1ccccc1)CC3)C(=O)CF` (relative stereo) [Example 106], for which the IC50 in series [1] is less than 5 µM.

On to `Cc1c(C(=O)N[C@H](C(=O)NC(CC(=O)O)C(=O)COC(=O)c2c(Cl)cccc2Cl)C(C)C)n(C)c2ccccc12` (stereo partly shown) [Example 70, N-[N-(1,3-Dimethyl-indole-2-carbonyl)-Valinyl]-3-amino-5-(2,6-dichlorobenzoyl)oxy-4-oxo-pentanoic acid], for which the IC50 in series [1] was less than 5 µM. Further, the respiratory burst result in series [2] (setting [4]) is given as “partially maintained”; in series [2] (setting [5]) it was “substantially maintained”. For the same compound, the “Percentage of diploid granulocytes in whole blood” value is listed as 89% in series [3] (96 hours at room temperature) and 96% in series [3] (time zero, 0 min).
